Source: PMC11083148, “Structure–Activity Relationship Studies on Highly Functionalized Pyrazole Hydrazones and Amides as Antiproliferative and Antioxidant Agents” (International Journal of Molecular Sciences, 2024)

Tests used:
[1] = design: method as in PMID 32932211; conditions: ABTS scavenging assay; cited from earlier work
GM-6114 = assay: MTT assay, cytotoxicity on normal fibroblasts; assay type: cell-based; conditions: human, 48 h, 10 µM
Description: Pyrazole acylhydrazones 10–13 and amides 14–22 were tested by MTT assay to evaluate their antiproliferative and cytotoxicity properties against a panel of eight tumor cell lines and normal fibroblasts.
The following cell lines were used for MTT assays: SKOV-3 (ovarian adenocarcinoma, ATCC, Manassas, VA, USA); MCF-7 (breast adenocarcinoma, Biologic Bank and Cell Factory, IRCCS Policlinico San Martino, Genoa, Italy); Hep-G2 (hepatocellular carcinoma, ATCC, Manassas, VA, USA); SK-MEL28 (skin melanoma, Biologic Bank and Cell Factory, IRCCS Policlinico San Martino, Genoa, Italy), GM-6114 (embryonic human fibroblast, ATCC, Manassas, VA, USA); MDA-MB231 (breast adenocarcinoma, Biologic Bank and Cell Factory, IRCCS Policlinico San Martino, Genoa, Italy); HeLa (cervical adenocarcinoma, Biologic Bank and Cell Factory, IRCCS Policlinico San Martino, Genoa, Italy); SK-BR3 (breast andenocarcinoma, Biologic Bank and Cell Factory, IRCCS Policlinico San Martino, Genoa, Italy); A549 (lung carcinoma, Biologic Bank and Cell Factory, IRCCS Policlinico San Martino, Genoa, Italy); HUVEC (Human Umbilical Vein Endothelial Cells, ATCC, Manassas, VA, USA). All cell lines were grown in their medium with 10% FBS, 2 mM Glutamine, and 1% penstrep and incubated at 37 °C in 5% CO2 in a humidified environment. The cell lines were plated in 96-well plates at an adequate number to reach 80–90% confluence at the end of the assay. 16 h after cell plating, a 10 mM DMSO stock solution of the compounds was diluted in growth medium and added at a final working concentration of 10 μM. After 48h of incubation, a 2 mg/mL PBS solution of MTT (3-(4,5-dimethyl-2-thiazolyl)-2,5-diphenyl-2H-tetrazolium bromide) was added (30 μL/well). After 4h, the supernatant was removed, and the Formazan precipitates were dissolved in DMSO (100 μL/well). The 96-well plates were incubated for 20 min, and absorbance was measured at 570 nm using a plate reader. The results are expressed as a percentage ratio over control samples (100%) in which the cells were incubated with the same amount of DMSO but without compounds. Each value is the mean of three independent experiments run in six replicates.

SKOV3 = assay: MTT assay, antiproliferative activity; assay type: cell-based; conditions: Homo sapiens, SK-OV-3, 10 µM, 48h
SKMEL28 = assay: MTT assay, antiproliferative activity; assay type: cell-based; conditions: Homo sapiens, SK-MEL-28, 10 µM, 48h
HeLa = assay: MTT assay, antiproliferative activity; assay type: cell-based; conditions: Homo sapiens, 10 µM, 48h, read-out: Mean Growth Percentage
MCF7 = assay: MTT assay, antiproliferative activity; assay type: cell-based; conditions: Homo sapiens, 10 µM, 48h
washed platelets [2] = assay: ROS assay in platelets (DCFH-DA, thrombin-stimulated); assay type: cell-based, human; conditions: Homo sapiens, Platelet, 0.1 U/mL thrombin, mean ± SD, read-out: IC50 ROS production inhibition
Outline: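 Washed human platelets (1.0 × 10^8/mL) in pH 7.4 HEPES buffer were pre-incubated 15 min at 37 °C with compound, then stimulated with 0.1 U/mL thrombin. ROS was read as DCF fluorescence from DCFH-DA by flow cytometry. IC50 comes from three-point concentration-response nonlinear regression versus saline control, mean of six experiments.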

[3] = DPPH radical-scavenging activity; assay type: physicochemical; design: AA (%), percentage of antioxidant activity: concentration or dose not given beside the values; conditions: mean ± SD, n = 2
Description: The antioxidant activity of the representative compounds of the two series (namely, acylhydrazones 10b, 11a, 11d, 12d, 13d, and amides 14, 22) was measured in vitro using the 2,2-diphenyl-1-picrylhydrazyl (DPPH) assay. The results were calculated as Trolox equivalent and expressed as a percentage of antioxidant activity (AA) (Table 3). […] Derivatives 10b and 12d were endowed with the highest antioxidant activity, thus highlighting the relevance of both pyrazole N1 and acylhydrazone substituents on compounds’ radical scavenging properties.
Compounds 10b, 11a, 11d, 12d, 13d, 14, and 22 (ca. 3 mg) were dissolved in DMSO (1 mL), and then 100 µL of this solution was mixed with 3.9 mL of DPPH methanol solution (65 µM). Absorbance was measured at 517 nm after reacting for 30 min in the dark. The linear calibration curve was obtained using Trolox standards (ranging between 20 and 200 mg/L, R^2 = 0.9955). The result was calculated as Trolox equivalent in mg/L, and the percentage of antioxidant activity (AA%) was calculated from the ratio of decreasing absorbance of sample solution (A0 − As) to absorbance of blank DPPH solution (A0), as expressed in Equation (1). (1) AA%=A0−As/A0×100
All analyses were carried out in duplicate (n = 2), and values are given as means ± standard deviation (SD).

MDA-MB231 = assay: MTT assay, antiproliferative activity; assay type: cell-based; conditions: Homo sapiens, MDA-MB-231, 48h
Outline: (§1)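 Cells plated 16 h, then exposed to compounds at 10 μM final for 48 h at 37 °C, 5% CO2. MTT added for 4 h, formazan dissolved in DMSO, absorbance read at 570 nm; values as percent of DMSO-only control, mean of three experiments in six replicates.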

SK-BR3 = assay: MTT assay, antiproliferative activity; assay type: cell-based; conditions: Homo sapiens, SK-BR-3, 48h
Outline: as §1

Hep-G2 = assay: MTT assay, antiproliferative activity; assay type: cell-based; conditions: Homo sapiens, HepG2, 48h
Outline: as §1

A549 = assay: MTT assay, antiproliferative activity; assay type: cell-based; conditions: Homo sapiens, 48h, read-out: Mean Growth Percentage
Outline: as §1

washed platelets [4] = assay: Platelet aggregation (thrombin-induced, Born's method); assay type: cell-based; conditions: Homo sapiens, 0.1 U/mL thrombin, mean ± SD, read-out: IC50 Aggregation inhibition
Outline: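 Washed human platelets (3.0 × 10^8/mL) were preincubated with compound at 37 °C for 3 min. Aggregation was then triggered with 0.1 U/mL thrombin and measured by Born's turbidimetric method, with IC50 values calculated from the response.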

SMILES | IC50 [1] | Trolox equivalent antioxidant capacity (TEAC) [1] | Mean Growth Percentage (GM-6114) | Mean growth percentage at 10 µM (SKOV3) | Mean growth percentage at 10 µM (SKMEL28) | activity at 10 µM (HeLa) | mean growth percentage (cell growth remaining vs control) at 10 µM (MCF7) | IC50 (washed platelets [2]) | AA (%), percentage of antioxidant activity [3] | DPPH (%) [3] | melting point | Mean growth percentage at 10 µM (MDA-MB231) | Mean growth percentage at 10 µM (SK-BR3) | Mean growth percentage at 10 µM (Hep-G2) | activity at 10 µM (A549) | IC50 (washed platelets [4])
Nc1c(C(F)(F)F)n[nH]c1-c1cccs1 [IIb] | 17.6 µM | 1.10 |  |  |  |  |  |  |  |  |  |  |  |  |  | 
COC(=O)c1c(NC(=O)c2cc(OC)c(OC)c(OC)c2)n[nH]c1Nc1ccccc1 [compound 14, Methyl 5-(phenylamino)-3-(3,4,5-trimethoxybenzamido)-1H-pyrazole-4-carboxylate] |  |  | 39.31% | 38.5% | 41.5% | 9.45% | 66.1% | 387 ± 35 µM | 3.62 ± 0.08% | 96.38 ± 0.08% | 164 to 166 °C | 57% | 53.8% | 67.2% | 35.1% | 365 ± 28 µM
COc1ccc(/C=N/NC(=O)c2c(N)nn(C)c2Nc2ccccc2)cc1OCc1ccccc1 [11d, (E)-3-amino-N′-(3-(benzyloxy)-4-methoxybenzylidene)-1-methyl-5-(phenylamino)-1H-pyrazole-4-carbohydrazide] |  |  | 99.22% | 103% | 89% | 95.2% | 82.9% | 182 ± 11 µM | 15.53 ± 0.24% | 84.47 ± 0.24% | 183 to 186 °C | 98.6% | 90.2% | 111% | 101% | 890 ± 19 µM
Nc1c(C(F)(F)F)n[nH]c1-c1ccccc1 [IIa] | 14.1 µM | 1.35 |  |  |  |  |  |  |  |  |  |  |  |  |  | 
